Reference: patent US20080182898A1, “Treatment of metabolic syndrome with norfluoxetine” (AMPLA Pharmaceuticals Inc., priority 2007, published 2008)

target: CB1 receptor (Homo sapiens, UniProt P21554); assay: functional activity versus the CB1 receptor; conditions: qualitative statement, no method or numbers given
Sequence (P21554 whole entry): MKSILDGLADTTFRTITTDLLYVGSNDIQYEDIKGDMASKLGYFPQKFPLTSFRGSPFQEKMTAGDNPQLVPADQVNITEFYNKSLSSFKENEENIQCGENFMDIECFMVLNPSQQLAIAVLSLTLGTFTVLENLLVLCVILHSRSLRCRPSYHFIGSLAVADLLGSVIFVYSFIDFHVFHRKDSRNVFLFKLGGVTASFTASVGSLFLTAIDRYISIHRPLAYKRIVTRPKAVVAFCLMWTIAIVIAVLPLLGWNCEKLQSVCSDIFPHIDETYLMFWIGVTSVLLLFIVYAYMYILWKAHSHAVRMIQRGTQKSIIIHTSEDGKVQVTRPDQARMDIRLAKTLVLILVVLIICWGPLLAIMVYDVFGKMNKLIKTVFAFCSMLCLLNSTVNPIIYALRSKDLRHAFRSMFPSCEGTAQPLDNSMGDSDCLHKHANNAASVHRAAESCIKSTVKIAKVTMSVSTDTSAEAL

| SMILES | functional activity versus the CB1 receptor (mode of action) |
| --- | --- |
| NCCC(Oc1ccc(C(F)(F)F)cc1)c1ccccc1 (racemic) [racemate of norfluoxetine, 3-(4-trifluoromethylphenoxy)3-phenylpropylamine] | antagonist |
| CNCC[C@@H](Oc1ccc(C(F)(F)F)cc1)c1ccccc1 [(R)-fluoxetine] | antagonist |
| CNCC[C@H](Oc1ccc(C(F)(F)F)cc1)c1ccccc1 [(S)-Fluoxetine] | inverse agonist |
